Converted amounts (≈) assume the structure as drawn. Each block holds one molecule with its values, some of them ahead of it. The source made the active and inactive calls. The rule behind the calls is not given here.
Tests used:
Format in all cases: functional, cell-based
MDA-MB-231 [1] = assay: Antiproliferative activity against human MDA-MB-231 cells after 48 hrs by CCK-8 assay; conditions: MDA-MB-231, 48 h
MCF7 [2] = assay: Antiproliferative activity against human MCF7 cells after 48 hrs by CCK-8 assay; conditions: MCF7, 48 h
MDA-MB-231 [3] = assay: Induction of apoptosis in human MDA-MB-231 cells at 1.25 ug/ml after 24 hrs by annexin V-FITC and PI-based fluorescence assay
MDA-MB-231 [4] = assay: Induction of apoptosis in human MDA-MB-231 cells at 0.4 ug/ml after 24 hrs by annexin V-FITC and PI-based fluorescence assay
MDA-MB-231 [5] = assay: Induction of apoptosis in human MDA-MB-231 cells after 24 hrs by annexin V-FITC and PI-based fluorescence assay
MCF7 [6] = assay: Induction of apoptosis in human MCF7 cells after 24 hrs by annexin V-FITC and PI-based fluorescence assay
MCF7 [7] = assay: Induction of apoptosis in human MCF7 cells assessed as early apoptosis at 0.9 ug/ml after 24 hrs by annexin V-FITC and PI-based fluorescence assay
MCF7 [8] = assay: Induction of apoptosis in human MCF7 cells assessed as early apoptosis at 0.3 ug/ml after 24 hrs by annexin V-FITC and PI-based fluorescence assay
MCF7 [9] = assay: Induction of apoptosis in human MCF7 cells assessed as late apoptosis at 0.9 ug/ml after 24 hrs by annexin V-FITC and PI-based fluorescence assay
MCF7 [10] = assay: Induction of apoptosis in human MCF7 cells assessed as late apoptosis at 0.3 ug/ml after 24 hrs by annexin V-FITC and PI-based fluorescence assay

IC50 (MDA-MB-231 [1]): 5.27 µg/mL (≈ 10.6 µM) | IC50 (MCF7 [2]): 2.58 µg/mL (≈ 5.19 µM)
SMILES: Cc1[nH]c2ccccc2c1C1=C(Cl)C(=O)C(Cl)=C(c2c(-c3ccccc3)[nH]c3ccccc23)C1=O

IC50 (MDA-MB-231 [1]): 4.33 µg/mL (≈ 7.39 µM) | IC50 (MCF7 [2]): 3.02 µg/mL (≈ 5.15 µM)
SMILES: Cc1[nH]c2ccccc2c1C1=C(Br)C(=O)C(Br)=C(c2c(-c3ccccc3)[nH]c3ccccc23)C1=O

IC50 (MDA-MB-231 [1]): 6.04 µg/mL (≈ 11.2 µM) | IC50 (MCF7 [2]): 2.31 µg/mL (≈ 4.27 µM)
SMILES: COc1ccc2[nH]c(C)c(C3=C(Cl)C(=O)C(Cl)=C(c4c(-c5ccc(C)cc5)[nH]c5ccccc45)C3=O)c2c1

IC50 (MDA-MB-231 [1]): 5.77 µg/mL (≈ 11.3 µM) | IC50 (MCF7 [2]): 2.88 µg/mL (≈ 5.63 µM)
SMILES: Cc1ccc(-c2[nH]c3ccccc3c2C2=C(Cl)C(=O)C(Cl)=C(c3c(C)[nH]c4ccccc34)C2=O)cc1

IC50 (MDA-MB-231 [1]): 5.64 µg/mL (≈ 9.62 µM) | IC50 (MCF7 [2]): 3.02 µg/mL (≈ 5.15 µM)
SMILES: Cc1[nH]c2ccccc2c1C1=C(Br)C(=O)C(c2c(-c3ccccc3)[nH]c3ccccc23)=C(Br)C1=O

IC50 (MDA-MB-231 [1]): 4.21 µg/mL (≈ 8.23 µM) | IC50 (MCF7 [2]): 2.8 µg/mL (≈ 5.48 µM)
SMILES: Cc1ccc(-c2[nH]c3ccccc3c2C2=C(Cl)C(=O)C(c3c(C)[nH]c4ccccc34)=C(Cl)C2=O)cc1

IC50 (MDA-MB-231 [1]): 4.46 µg/mL (≈ 8.97 µM) | IC50 (MCF7 [2]): 2.29 µg/mL (≈ 4.6 µM)
SMILES: Cc1[nH]c2ccccc2c1C1=C(Cl)C(=O)C(c2c(-c3ccccc3)[nH]c3ccccc23)=C(Cl)C1=O
Activity (MCF7 [7]): Active | Activity (MCF7 [8]): Active | Activity (MCF7 [9]): Active | Activity (MCF7 [10]): Active | Activity (MDA-MB-231 [5]): Dose-dependent effect | Activity (MCF7 [6]): Dose-dependent effect

The next lines start with the molecule.

SMILES: COc1ccc2[nH]c(C)c(C3=C(Br)C(=O)C(c4c(-c5ccccc5)[nH]c5ccccc45)=C(Br)C3=O)c2c1
IC50 (MDA-MB-231 [1]): 5.02 µg/mL (≈ 8.15 µM) | IC50 (MCF7 [2]): 2.57 µg/mL (≈ 4.17 µM)

SMILES: COc1ccc2[nH]c(C)c(C3=C(Br)C(=O)C(Br)=C(c4c(-c5ccccc5)[nH]c5ccccc45)C3=O)c2c1
IC50 (MDA-MB-231 [1]): 7.67 µg/mL (≈ 12.4 µM) | IC50 (MCF7 [2]): 3.38 µg/mL (≈ 5.48 µM)

SMILES: O=C1C(Cl)=C(Cl)C(=O)C(c2c(-c3ccccc3)[nH]c3ccccc23)=C1Cl
IC50 (MDA-MB-231 [1]): 34.9 µg/mL (≈ 86.8 µM) | IC50 (MCF7 [2]): > 25 µg/mL

SMILES: COc1ccc2[nH]c(C)c(C3=C(Br)C(=O)C(c4c(C)[nH]c5ccccc45)=C(Br)C3=O)c2c1
IC50 (MDA-MB-231 [1]): > 10 µg/mL | IC50 (MCF7 [2]): > 25 µg/mL

SMILES: Cc1ccc(-c2[nH]c3ccccc3c2C2=C(Br)C(=O)C(Br)=C(c3c(C)[nH]c4ccccc34)C2=O)cc1
IC50 (MDA-MB-231 [1]): 5.89 µg/mL (≈ 9.81 µM) | IC50 (MCF7 [2]): 6.85 µg/mL (≈ 11.4 µM)

SMILES: COc1cccc2c1C(=O)c1c(O)c3c(c(O)c1C2=O)C[C@@](O)(C(=O)CO)C[C@@H]3O[C@H]1C[C@H](N)[C@H](O)[C@H](C)O1 [DOXORUBICIN]
IC50 (MDA-MB-231 [1]): 0.2 µg/mL (≈ 0.368 µM)

SMILES: Cc1[nH]c2ccccc2c1C1=C(Br)C(=O)C(c2c(C)[nH]c3ccccc23)=C(Br)C1=O
IC50 (MDA-MB-231 [1]): 5.55 µg/mL (≈ 10.6 µM) | IC50 (MCF7 [2]): 7 µg/mL (≈ 13.4 µM)

SMILES: Cc1[nH]c2ccccc2c1C1=C(Br)C(=O)C(Br)=C(c2c(C)[nH]c3ccccc23)C1=O
IC50 (MDA-MB-231 [1]): 4.76 µg/mL (≈ 9.08 µM) | IC50 (MCF7 [2]): 8.33 µg/mL (≈ 15.9 µM)

SMILES: COc1ccc2[nH]c(C)c(C3=C(Br)C(=O)C(Br)=C(Br)C3=O)c2c1
IC50 (MDA-MB-231 [1]): > 10 µg/mL | IC50 (MCF7 [2]): > 25 µg/mL

SMILES: COc1ccc2[nH]c(C)c(C3=C(Br)C(=O)C(c4c(-c5ccc(C)cc5)[nH]c5ccccc45)=C(Br)C3=O)c2c1
IC50 (MDA-MB-231 [1]): 3.99 µg/mL (≈ 6.33 µM) | IC50 (MCF7 [2]): 2.56 µg/mL (≈ 4.06 µM) | Activity (MDA-MB-231 [3]): Active | Activity (MDA-MB-231 [4]): Active | Activity (MDA-MB-231 [5]): Dose-dependent effect | Activity (MCF7 [6]): Dose-dependent effect

SMILES: Cc1ccc(-c2[nH]c3ccccc3c2C2=C(Br)C(=O)C(Br)=C(Br)C2=O)cc1
IC50 (MDA-MB-231 [1]): 21.6 µg/mL (≈ 39.2 µM) | IC50 (MCF7 [2]): > 25 µg/mL

SMILES: COc1ccc2[nH]c(C)c(C3=C(Cl)C(=O)C(c4c(-c5ccc(C)cc5)[nH]c5ccccc45)=C(Cl)C3=O)c2c1
IC50 (MDA-MB-231 [1]): 4.15 µg/mL (≈ 7.66 µM) | IC50 (MCF7 [2]): 3.11 µg/mL (≈ 5.74 µM)

SMILES: Cc1ccc(-c2[nH]c3ccccc3c2C2=C(Br)C(=O)C(c3c(C)[nH]c4ccccc34)=C(Br)C2=O)cc1
IC50 (MDA-MB-231 [1]): 6.67 µg/mL (≈ 11.1 µM) | IC50 (MCF7 [2]): 3.25 µg/mL (≈ 5.41 µM)

SMILES: COc1ccc2[nH]c(C)c(C3=C(Br)C(=O)C(Br)=C(c4c(C)[nH]c5ccc(OC)cc45)C3=O)c2c1
IC50 (MDA-MB-231 [1]): 8.43 µg/mL (≈ 14.4 µM) | IC50 (MCF7 [2]): 4.72 µg/mL (≈ 8.08 µM)

Reference: ChEMBL document CHEMBL2040722, “Synthesis and anti-breast cancer activity of new indolylquinone derivatives” (Eur J Med Chem, 2012)
